Reference: ChEMBL document CHEMBL3046841, “The synthesis and screening of the antimicrobial activity of some novel 3-(furan-2-yl)-1-(aryl)-3-(phenylthio) propan-1-one derivatives” (2011)
≈ marks a conversion by molar mass, not a printed value.

Experiments:
Format in all cases: functional
[1] = system: Pseudomonas aeruginosa; test: Antimicrobial activity against Pseudomonas aeruginosa ATCC 9027 after 24 hr by serial microdilution method; details: ATCC 9027, 24 h
[2] = system: Bacillus cereus; test: Antimicrobial activity against Bacillus cereus DSM 4312 after 24 hr by serial microdilution method; details: DSM 4312, 24 h
[3] = system: Staphylococcus aureus; test: Antimicrobial activity against Staphylococcus aureus ATCC 29213 at 105 ug/disc after 24 hr by disk diffusion method; details: ATCC 29213, 24 h, read-out: IZ
[4] = system: Proteus vulgaris; test: Antimicrobial activity against Proteus vulgaris KUEN 1329 after 24 hr by serial microdilution method; details: KUEN 1329, 24 h
[5] = system: Bacillus cereus; test: Antimicrobial activity against Bacillus cereus DSM 4312 at 105 ug/disk after 24 hr by disk diffusion method; details: DSM 4312, 24 h, read-out: IZ
[6] = system: Candida albicans; test: Antimicrobial activity against Candida albicans ATCC 1213 by serial microdilution method
[7] = system: Staphylococcus aureus; test: Antimicrobial activity against Staphylococcus aureus ATCC 29213 after 24 hr by serial microdilution method; details: ATCC 29213, 24 h
[8] = system: Cyberlindnera jadinii; test: Antimicrobial activity against Cyberlindnera jadinii KUEN 1031 serial microdilution method; details: Williopsis jadinii
[9] = system: Candida albicans; test: Antimicrobial activity against Candida albicans ATCC 1213 at 105 ug/disk after 48 hr by disk diffusion method; details: ATCC 1213, 48 h, read-out: IZ
[10] = system: Escherichia coli; test: Antimicrobial activity against Escherichia coli 111 after 24 hr by serial microdilution method; details: Escherichia coli, 111, 24 h
[11] = system: Proteus vulgaris; test: Antimicrobial activity against Proteus vulgaris KUEN 1329 at 105 ug/disk after 24 hr by disk diffusion method; details: KUEN 1329, 24 h, read-out: IZ
[12] = system: Bacillus subtilis; test: Antimicrobial activity against Bacillus subtilis ATCC 6633 after 24 hr by serial microdilution method; details: ATCC 6633, 24 h
[13] = system: Salmonella enteritidis; test: Antimicrobial activity against Salmonella enterica subsp. enterica serovar Enteritidis ATCC 13076 at 105 ug/disk after 24 hr by disk diffusion method; details: ATCC 13076, 24 h, read-out: IZ
[14] = system: Streptococcus pyogenes; test: Antimicrobial activity against Streptococcus pyogenes ATCC 176 after 24 hr by serial microdilution method; details: ATCC 176, 24 h
[15] = system: Pseudomonas aeruginosa; test: Antimicrobial activity against Pseudomonas aeruginosa ATCC 27859 after 24 hr by serial microdilution method; details: ATCC 27859, 24 h
[16] = system: Cyberlindnera jadinii; test: Antimicrobial activity against Cyberlindnera jadinii KUEN 1031 at 105 ug/disc after 48 hr by disk diffusion method; details: Williopsis jadinii, KUEN 1031, 48 h; read-out: IZ
[17] = system: Pseudomonas aeruginosa; test: Antimicrobial activity against Pseudomonas aeruginosa ATCC 9027 at 105 ug/disk after 24 hr by disk diffusion method; details: ATCC 9027, 24 h, read-out: IZ
[18] = system: Salmonella enteritidis; test: Antimicrobial activity against Salmonella enterica subsp. enterica serovar Enteritidis ATCC 13076 after 24 hr by serial microdilution method; details: ATCC 13076, 24 h
[19] = system: Bacillus subtilis; test: Antimicrobial activity against Bacillus subtilis ATCC 6633 at 105 ug/disk after 24 hr by disk diffusion method; details: ATCC 6633, 24 h, read-out: IZ
[20] = system: Pseudomonas aeruginosa; test: Antimicrobial activity against Pseudomonas aeruginosa ATCC 27859 at 105 ug/disk after 24 hr by disk diffusion method; details: ATCC 27859, 24 h, read-out: IZ
[21] = system: Streptococcus pyogenes; test: Antimicrobial activity against Streptococcus pyogenes ATCC 176 at 105 ug/disc after 24 hr by disc diffusion method; details: ATCC 176, 24 h, read-out: IZ
[22] = system: Escherichia coli; test: Antimicrobial activity against Escherichia coli 111 at 105 ug/disk after 24 hr by disk diffusion method; details: Escherichia coli, 111, 24 h; read-out: IZ

MIC [1] [µg/mL]	MIC [2] [µg/mL]	MIC [4] [µg/mL]	MIC [6] [µg/mL]	MIC [7] [µg/mL]	MIC [8] [µg/mL]	MIC [10] [µg/mL]	MIC [12] [µg/mL]	MIC [14] [µg/mL]	MIC [15] [µg/mL]	MIC [18] [µg/mL]	SMILES	zone of inhibition at 105 µg/disc [9] [mm]	zone of inhibition at 105 µg/disc [11] [mm]	zone of inhibition at 105 µg/disc [13] [mm]	zone of inhibition at 105 µg/disc [16] [mm]	zone of inhibition at 105 µg/disc [17] [mm]	other results
15.6 (≈ 40.3 µM)	31.2 (≈ 80.7 µM)	31.2 (≈ 80.7 µM)	> 125	15.6 (≈ 40.3 µM)	> 125	> 125	31.2 (≈ 80.7 µM)	31.2 (≈ 80.7 µM)	> 125	31.2 (≈ 80.7 µM)	O=C(CC(Sc1ccccc1)c1ccco1)c1cccc(Br)c1 (stereo not given)	16	15	16	14	16	zone of inhibition at 105 µg/disc [3]: 16 mm; zone of inhibition at 105 µg/disc [5]: 13 mm
31.2 (≈ 80.7 µM)	62.5 (≈ 161 µM)	15.6 (≈ 40.3 µM)	15.6 (≈ 40.3 µM)	> 125	125 (≈ 323 µM)	> 125	31.2 (≈ 80.7 µM)	7.81 (≈ 20.2 µM)	31.2 (≈ 80.7 µM)	62.5 (≈ 161 µM)	O=C(CC(Sc1ccccc1)c1ccco1)c1ccc(Br)cc1 (stereo not given)	11	15	17	13	15	
> 125	15.6 (≈ 48.2 µM)	7.81 (≈ 24.1 µM)	125 (≈ 385 µM)	15.6 (≈ 48.2 µM)	7.81 (≈ 24.1 µM)	15.6 (≈ 48.2 µM)	15.6 (≈ 48.2 µM)	3.9 (≈ 12 µM)	125 (≈ 385 µM)	31.2 (≈ 96.3 µM)	O=C(CC(Sc1ccccc1)c1ccco1)c1ccccc1O (stereo not given)	21	18	19	15	14	zone of inhibition at 105 µg/disc [3]: 16 mm; zone of inhibition at 105 µg/disc [5]: 15 mm; zone of inhibition at 105 µg/disc [19]: 17 mm; zone of inhibition at 105 µg/disc [20]: 17 mm; zone of inhibition at 105 µg/disc [21]: 17 mm
62.5 (≈ 193 µM)	31.2 (≈ 96.3 µM)	7.81 (≈ 24.1 µM)	15.6 (≈ 48.2 µM)	31.2 (≈ 96.3 µM)	62.5 (≈ 193 µM)	62.5 (≈ 193 µM)	31.2 (≈ 96.3 µM)	7.81 (≈ 24.1 µM)	62.5 (≈ 193 µM)	62.5 (≈ 193 µM)	O=C(CC(Sc1ccccc1)c1ccco1)c1ccc(O)cc1 (stereo not given)	20	17	17	13	14	zone of inhibition at 105 µg/disc [22]: 10 mm
7.81 (≈ 22.4 µM)	> 125	15.6 (≈ 44.7 µM)	> 125	> 125	7.81 (≈ 22.4 µM)	> 125	> 125	3.9 (≈ 11.2 µM)	> 125	> 125	CC1(C)S[C@@H]2[C@H](NC(=O)[C@H](N)c3ccccc3)C(=O)N2[C@H]1C(=O)O [AMPICILLIN]						
15.6 (≈ 28.2 µM)	> 125	15.6 (≈ 28.2 µM)	> 125	> 125	15.6 (≈ 28.2 µM)	> 125	3.9 (≈ 7.03 µM)	3.9 (≈ 7.03 µM)	> 125	125 (≈ 225 µM)	CO/N=C(\C(=O)N[C@@H]1C(=O)N2C(C(=O)O)=C(CSc3nc(=O)c(O)nn3C)CS[C@H]12)c1csc(N)n1 [CEFTRIAXONE]						
3.9 (≈ 8.78 µM)	62.5 (≈ 141 µM)	3.9 (≈ 8.78 µM)	125 (≈ 281 µM)	125 (≈ 281 µM)	15.6 (≈ 35.1 µM)	125 (≈ 281 µM)	15.6 (≈ 35.1 µM)	3.9 (≈ 8.78 µM)	> 125	7.81 (≈ 17.6 µM)	CN(C)[C@@H]1C(O)=C(C(N)=O)C(=O)[C@@]2(O)C(O)=C3C(=O)c4c(O)cccc4[C@@](C)(O)[C@H]3C[C@@H]12 [TETRACYCLINE]						
